Data from article PMC7406541, “Vectorial transport of the arginine derivatives asymmetric dimethylarginine (ADMA) and L-homoarginine by OATP4C1 and P-glycoprotein studied in double-transfected MDCK cells” (Amino Acids, 2020).
One block for each molecule: values may come before it.

How the values were obtained:
MDCK-VC cells = test: Transcellular basal to apical transport across MDCK-VC control cell monolayers; assay type: in vitro ADME; conditions: 1 µM, 1 h
Experimental: Transcellular transport in MDCK-OATP4C1-P-gp double-transfectants and respective MDCK-OATP4C1 and MDCK-P-gp single-transfectants as well as in the MDCK-VC control cell line was analyzed as previously described (Taghikhani et al. [2017]). Cells were cultured in Transwell membrane inserts (14 mm diameter, 0.4 µm pore size; Greiner Bio-One, Frickenhausen, Germany) in an initial density of 5 × 10^5 cells/well. Cells were cultivated at 37 °C for 48 h before inducing them by replacing the medium with fresh medium containing 10 mM of sodium butyrate. After 24 h of further incubation, cells were used for transcellular transport studies.
To study the transcellular transport, cells were washed with pre-warmed (37 °C) uptake buffer applied to both the basolateral and apical compartment. […] After incubating the cells for stated time points, the amount of radioactivity on the apical compartment was measured by liquid scintillation counting.
Concentration dependency of transcellular transport of ADMA and L-homoarginine was studied by applying the respective compound in concentrations of 1, 20, 50 and 100 µM on the basolateral compartment of MDCK transfectants. […] Cells were lysed and the cellular protein content was quantified as described. 400 µl (or 80 µl for time-dependency analysis) of the applied donor solutions were also analyzed by scintillation counting as reference. […]

[1] = design: method as in Kielstein et al. [2009]; conditions: ref Kielstein et al. [2009]; cited from earlier work
human P-gp = human P-gp (Homo sapiens, UniProt P08183); test: Transcellular basal to apical (vectorial) transport across MDCK-P-gp cell monolayers; conditions: for Average ratio of vectorial transport (relative to MDCK-VC cells): MDCK-P-gp, 1 h incubation
human OATP4C1 = test: Transcellular basal to apical (vectorial) transport across MDCK-OATP4C1 cell monolayers; conditions: 1 h incubation
[2] = test system: human OATP4C1 and human P-gp; test: Transcellular basal to apical (vectorial) transport across double-transfected MDCK-OATP4C1-P-gp cell monolayers; conditions: for Time-dependent transcellular transport in MDCK-OATP4C1-P-gp cells compared to the other tested cell lines: all time points 1, 2, 3 and 4 h; for Transport ratio MDCK-OATP4C1-P-gp/MDCK-VC: 50 µM, basolateral to apical; for Average ratio of vectorial transport (relative to MDCK-VC cells): MDCK-OATP4C1-P-gp, 1 h incubation
CAT1 = test system: CAT1; design: method as in Chafai et al. [2017]; conditions: ref Chafai et al. [2017]; read-out: Km value for CAT1-mediated uptake; cited from earlier work
OATP4C1 = test system: OATP4C1; design: method as in Taghikhani et al. [2019]; conditions: ref Taghikhani et al. [2019]; read-out: Km value as substrate of OATP4C1; cited from earlier work

Sequence of human P-gp (P08183 whole entry): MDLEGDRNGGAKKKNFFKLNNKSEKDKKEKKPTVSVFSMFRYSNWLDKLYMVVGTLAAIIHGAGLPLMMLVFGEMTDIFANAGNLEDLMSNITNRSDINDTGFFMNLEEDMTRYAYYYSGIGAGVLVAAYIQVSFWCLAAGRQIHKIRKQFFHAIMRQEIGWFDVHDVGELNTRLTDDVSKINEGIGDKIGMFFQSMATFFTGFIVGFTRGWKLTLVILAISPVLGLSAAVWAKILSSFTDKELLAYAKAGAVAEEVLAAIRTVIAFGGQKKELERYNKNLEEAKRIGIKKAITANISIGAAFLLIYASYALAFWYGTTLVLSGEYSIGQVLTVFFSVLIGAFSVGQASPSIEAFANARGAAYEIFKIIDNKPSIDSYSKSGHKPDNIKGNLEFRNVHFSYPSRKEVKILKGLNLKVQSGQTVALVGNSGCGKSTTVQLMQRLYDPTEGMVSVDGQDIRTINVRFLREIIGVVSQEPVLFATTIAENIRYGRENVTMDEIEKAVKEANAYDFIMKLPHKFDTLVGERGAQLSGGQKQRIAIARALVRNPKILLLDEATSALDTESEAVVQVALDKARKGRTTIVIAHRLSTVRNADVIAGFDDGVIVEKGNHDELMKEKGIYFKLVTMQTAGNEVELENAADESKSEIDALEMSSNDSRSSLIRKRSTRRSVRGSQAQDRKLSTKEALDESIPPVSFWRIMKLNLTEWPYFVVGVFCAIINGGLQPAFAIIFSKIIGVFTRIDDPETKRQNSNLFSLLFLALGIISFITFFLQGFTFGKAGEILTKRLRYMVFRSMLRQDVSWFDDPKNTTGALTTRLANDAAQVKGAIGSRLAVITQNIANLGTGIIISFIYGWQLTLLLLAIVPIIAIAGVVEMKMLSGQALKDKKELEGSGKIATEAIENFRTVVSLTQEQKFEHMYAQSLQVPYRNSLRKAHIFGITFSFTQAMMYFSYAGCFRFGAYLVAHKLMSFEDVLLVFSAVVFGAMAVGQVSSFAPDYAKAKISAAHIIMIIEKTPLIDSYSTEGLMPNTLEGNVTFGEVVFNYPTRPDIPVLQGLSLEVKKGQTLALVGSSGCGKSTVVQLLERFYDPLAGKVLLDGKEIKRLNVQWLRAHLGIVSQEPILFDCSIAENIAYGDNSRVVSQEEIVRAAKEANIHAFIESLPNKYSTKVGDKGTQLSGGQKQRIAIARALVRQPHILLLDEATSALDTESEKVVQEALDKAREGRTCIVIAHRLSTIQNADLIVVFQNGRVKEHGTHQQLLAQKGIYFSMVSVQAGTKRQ

Structure (SMILES): CN(C)C(N)=NCCC[C@H](N)C(=O)O [ADMA, asymmetric dimethylarginine]
Transcellular transport rate (MDCK-VC cells): 4.8 ± 0.4 pmol × mg protein^−1 × min^−1
Share excreted unchanged into urine [1]: 20%
Share taken up into proximal tubule cells that is metabolized (e.g. by DDAH1) [1]: ~80%
Average ratio of vectorial transport (relative to MDCK-VC cells) (human P-gp; 1 µM basal): 1.10
Average ratio of vectorial transport (relative to MDCK-VC cells) (human P-gp; 20 µM basal): 1.19
Average ratio of vectorial transport (relative to MDCK-VC cells) (human P-gp; 50 µM basal): 1.20
Average ratio of vectorial transport (relative to MDCK-VC cells) (human P-gp; 100 µM basal): 1.30
Average ratio of vectorial transport (relative to MDCK-VC cells) (human OATP4C1; 1 µM basal): 1.17
Average ratio of vectorial transport (relative to MDCK-VC cells) (human OATP4C1; 20 µM basal): 1.19
Average ratio of vectorial transport (relative to MDCK-VC cells) (human OATP4C1; 50 µM basal): 1.14
Average ratio of vectorial transport (relative to MDCK-VC cells) (human OATP4C1; 100 µM basal): 1.20
Transport ratio MDCK-OATP4C1-P-gp vs MDCK-VC ([2]; 1 µM, 1 h): 1.92 fold
Time-dependent transcellular transport in MDCK-OATP4C1-P-gp cells compared to the other tested cell lines ([2]; 1 µM): significantly higher
Transport ratio MDCK-OATP4C1-P-gp/MDCK-VC [2]: 2.0 fold
Transcellular transport rate ([2]; MDCK-OATP4C1-P-gp cells, 1 µM, basal to apical, 1 h): 9.2 ± 1.2 pmol × mg protein^−1 × min^−1
Average ratio of vectorial transport (relative to MDCK-VC cells) ([2]; 1 µM basal): 1.92
Average ratio of vectorial transport (relative to MDCK-VC cells) ([2]; 20 µM basal): 1.87
Average ratio of vectorial transport (relative to MDCK-VC cells) ([2]; 50 µM basal): 2.00
Average ratio of vectorial transport (relative to MDCK-VC cells) ([2]; 100 µM basal): 1.83

Structure (SMILES): NC(N)=NCCCC[C@H](N)C(=O)O [L-homoarginine]
Km (CAT1): 175 µM
Km (OATP4C1): 49.9 µM
Average ratio of vectorial transport (relative to MDCK-VC cells) (human P-gp; 1 µM basal): 1.11
Average ratio of vectorial transport (relative to MDCK-VC cells) (human P-gp; 20 µM basal): 1.61
Average ratio of vectorial transport (relative to MDCK-VC cells) (human P-gp; 50 µM basal): 1.45
Average ratio of vectorial transport (relative to MDCK-VC cells) (human P-gp; 100 µM basal): 1.43
Average ratio of vectorial transport (relative to MDCK-VC cells) (human OATP4C1; 1 µM basal): 1.33
Average ratio of vectorial transport (relative to MDCK-VC cells) (human OATP4C1; 20 µM basal): 1.92
Average ratio of vectorial transport (relative to MDCK-VC cells) (human OATP4C1; 50 µM basal): 2.09
Average ratio of vectorial transport (relative to MDCK-VC cells) (human OATP4C1; 100 µM basal): 2.31
Time-dependent transcellular transport in MDCK-OATP4C1-P-gp cells compared to the other tested cell lines ([2]; 1 µM): significantly higher
Transport ratio MDCK-OATP4C1-P-gp/MDCK-VC [2]: 3.4 fold
Average ratio of vectorial transport (relative to MDCK-VC cells) ([2]; 1 µM basal): 3.44
Average ratio of vectorial transport (relative to MDCK-VC cells) ([2]; 20 µM basal): 3.94
Average ratio of vectorial transport (relative to MDCK-VC cells) ([2]; 50 µM basal): 3.41
Average ratio of vectorial transport (relative to MDCK-VC cells) ([2]; 100 µM basal): 6.65

Transcellular transport in MDCK-P-gp in comparison to MDCK-VC (human P-gp; 5 µM, incubation time 1 h): 1.7 fold
Structure (SMILES): C[C@H]1O[C@@H](O[C@H]2[C@@H](O)C[C@H](O[C@H]3[C@@H](O)C[C@H](O[C@H]4CC[C@@]5(C)[C@H](CC[C@@H]6[C@@H]5C[C@@H](O)[C@]5(C)[C@@H](C7=CC(=O)OC7)CC[C@]65O)C4)O[C@@H]3C)O[C@@H]2C)C[C@H](O)[C@@H]1O [digoxin, reference compound]
